Measured values from PubChem BioAssay AID1259407 (Chemical Carcinogenesis Research Information System (CCRIS), 2018).
Active and inactive are the calls of the source. No rule for the calls is given here.

Tested on: CCRIS mutagenicity, Ames/micronucleus/aberration tests
Assay: CCRIS mutagenicity studies
[1] = Test System: AMES SALMONELLA TYPHIMURIUM, Strain/Indicator: TA98, Metabolic Activation: HAMSTER, LIVER, S-9, AROCLOR 1254 (10%), Method: PREINCUBATION
[2] = Test System: AMES SALMONELLA TYPHIMURIUM, Strain/Indicator: TA98, Metabolic Activation: NONE, Method: PREINCUBATION
[3] = Test System: AMES SALMONELLA TYPHIMURIUM, Strain/Indicator: TA98, Metabolic Activation: NONE, Method: STANDARD PLATE
[4] = Test System: AMES SALMONELLA TYPHIMURIUM, Strain/Indicator: TA98, Metabolic Activation: RAT, LIVER, S-9, AROCLOR 1254 (10%), Method: PREINCUBATION
[5] = Test System: AMES SALMONELLA TYPHIMURIUM, Strain/Indicator: TA98, Metabolic Activation: RAT, LIVER, S-9, AROCLOR 1254, Method: STANDARD PLATE
[6] = Test System: AMES SALMONELLA TYPHIMURIUM, Strain/Indicator: TA100, Metabolic Activation: HAMSTER, LIVER, S-9, AROCLOR 1254 (10%), Method: PREINCUBATION
[7] = Test System: AMES SALMONELLA TYPHIMURIUM, Strain/Indicator: TA100, Metabolic Activation: NONE, Method: PREINCUBATION
[8] = Test System: AMES SALMONELLA TYPHIMURIUM, Strain/Indicator: TA100, Metabolic Activation: NONE, Method: STANDARD PLATE
[9] = Test System: AMES SALMONELLA TYPHIMURIUM, Strain/Indicator: TA100, Metabolic Activation: RAT, LIVER, S-9, AROCLOR 1254 (10%), Method: PREINCUBATION
[10] = Test System: AMES SALMONELLA TYPHIMURIUM, Strain/Indicator: TA100, Metabolic Activation: RAT, LIVER, S-9, AROCLOR 1254, Method: STANDARD PLATE
[11] = Test System: AMES SALMONELLA TYPHIMURIUM, Strain/Indicator: TA1535, Metabolic Activation: HAMSTER, LIVER, S-9, AROCLOR 1254 (10%), Method: PREINCUBATION
[12] = Test System: AMES SALMONELLA TYPHIMURIUM, Strain/Indicator: TA1535, Metabolic Activation: NONE, Method: PREINCUBATION
[13] = Test System: AMES SALMONELLA TYPHIMURIUM, Strain/Indicator: TA1535, Metabolic Activation: NONE, Method: STANDARD PLATE
[14] = Test System: AMES SALMONELLA TYPHIMURIUM, Strain/Indicator: TA1535, Metabolic Activation: RAT, LIVER, S-9, AROCLOR 1254 (10%), Method: PREINCUBATION
[15] = Test System: AMES SALMONELLA TYPHIMURIUM, Strain/Indicator: TA1535, Metabolic Activation: RAT, LIVER, S-9, AROCLOR 1254, Method: STANDARD PLATE
[16] = Test System: AMES SALMONELLA TYPHIMURIUM, Strain/Indicator: TA1537, Metabolic Activation: HAMSTER, LIVER, S-9, AROCLOR 1254 (10%), Method: PREINCUBATION
[17] = Test System: AMES SALMONELLA TYPHIMURIUM, Strain/Indicator: TA1537, Metabolic Activation: NONE, Method: PREINCUBATION
[18] = Test System: AMES SALMONELLA TYPHIMURIUM, Strain/Indicator: TA1537, Metabolic Activation: NONE, Method: STANDARD PLATE
[19] = Test System: AMES SALMONELLA TYPHIMURIUM, Strain/Indicator: TA1537, Metabolic Activation: RAT, LIVER, S-9, AROCLOR 1254 (10%), Method: PREINCUBATION
[20] = Test System: AMES SALMONELLA TYPHIMURIUM, Strain/Indicator: TA1537, Metabolic Activation: RAT, LIVER, S-9, AROCLOR 1254, Method: STANDARD PLATE
[21] = Test System: AMES SALMONELLA TYPHIMURIUM, Strain/Indicator: TA1538, Metabolic Activation: NONE, Method: STANDARD PLATE
[22] = Test System: AMES SALMONELLA TYPHIMURIUM, Strain/Indicator: TA1538, Metabolic Activation: RAT, LIVER, S-9, AROCLOR 1254, Method: STANDARD PLATE

With `O.[Al+3].[Al+3].[Na+].[Na+].[O-2].[O-2].[O-2].[O-2].[O-2].[O-2].[Si+4]` the mutagenic call [1] was “inactive; negative”, the mutagenic call [2] was “inactive; negative” and the mutagenic call [3] was “inactive; negative”. The mutagenic call [4] was “inactive; negative”, the mutagenic call [5] was “inactive; negative” and the mutagenic call [6] was “inactive; negative”. The mutagenic call [7] was “inactive; negative”, the mutagenic call [8] was “inactive; negative” and the mutagenic call [9] was “inactive; negative”. For the same compound, the mutagenic call [10] was “inactive; negative”, the mutagenic call [11] was “inactive; negative” and the mutagenic call [12] was “inactive; negative”. The mutagenic call [13] was “inactive; negative”, the mutagenic call [14] was “inactive; negative” and the mutagenic call [15] was “inactive; negative”. For the same compound, the mutagenic call [16] was “inactive; negative”, the mutagenic call [17] was “inactive; negative” and the mutagenic call [18] was “inactive; negative”. The mutagenic call [19] was “inactive; negative”, the mutagenic call [20] was “inactive; negative” and the mutagenic call [21] was “inactive; negative”. For the same compound, the mutagenic call [22] was “inactive; negative”, the mutagenic call (Test System: E. COLI, Strain/Indicator: WP2, Metabolic Activation: NONE, Method: STANDARD PLATE) was “inactive; negative” and the mutagenic call (Test System: E. COLI, Strain/Indicator: WP2, Metabolic Activation: RAT, LIVER, S-9, AROCLOR 1254, Method: STANDARD PLATE) was “inactive; negative”.

In the case of `OCC(CO)(CBr)CBr`, the mutagenic call (End Point: IN VITRO CHROMOSOMAL ABERRATIONS, Test System: CHINESE HAMSTER OVARY CELLS, Metabolic Activation: NONE) is reported as “inactive; negative”, the mutagenic call (End Point: IN VITRO CHROMOSOMAL ABERRATIONS, Test System: CHINESE HAMSTER OVARY CELLS, Metabolic Activation: RAT, LIVER, S-9, AROCLOR 1254) is reported as “active; positive” and the mutagenic call [1] is reported as “inactive; negative”. The mutagenic call (Test System: AMES SALMONELLA TYPHIMURIUM, Strain/Indicator: TA98, Metabolic Activation: HAMSTER, LIVER, S-9, AROCLOR 1254 (30%), Method: PREINCUBATION) was “inactive; negative”, the mutagenic call [2] was “inactive; negative” and the mutagenic call [4] was “inactive; negative”. For the same compound, the mutagenic call (Test System: AMES SALMONELLA TYPHIMURIUM, Strain/Indicator: TA98, Metabolic Activation: RAT, LIVER, S-9, AROCLOR 1254 (30%), Method: PREINCUBATION) was “inactive; negative”, the mutagenic call [6] was “inactive; negative” and the mutagenic call (Test System: AMES SALMONELLA TYPHIMURIUM, Strain/Indicator: TA100, Metabolic Activation: HAMSTER, LIVER, S-9, AROCLOR 1254 (30%), Method: PREINCUBATION) was “active; positive”. For the same compound, the mutagenic call [7] was “inactive; negative”, the mutagenic call [9] was “inactive; negative” and the mutagenic call (Test System: AMES SALMONELLA TYPHIMURIUM, Strain/Indicator: TA100, Metabolic Activation: RAT, LIVER, S-9, AROCLOR 1254 (30%), Method: PREINCUBATION) was “inactive; negative”. For the same compound, the mutagenic call [11] was “inactive; negative”, the mutagenic call [12] was “inactive; negative” and the mutagenic call [14] was “inactive; negative”. The mutagenic call [16] was “inactive; negative”, the mutagenic call [17] was “inactive; negative” and the mutagenic call [19] was “inactive; negative”.

`Cc1c(N)nc(C(CC(N)=O)NCC(N)C(N)=O)nc1C(=O)NC(C(=O)NC(C)C(O)C(C)C(=O)NC(C(=O)NCCc1nc(-c2nc(C(=O)O)cs2)cs1)C(C)O)C(OC1OC(CO)C(O)C(O)C1OC1OC(CO)C(O)C(OC(N)=O)C1O)c1cnc[nH]1` (stereo not drawn) was tested, and the mutagenic call (Test System: AMES SALMONELLA TYPHIMURIUM, Strain/Indicator: TA102, Metabolic Activation: NONE, Method: PREINCUBATION) was “inactive; negative”.

For `ClCc1ccc(CCl)cc1`, the mutagenic call [3] was “inactive; negative”.

With `Cc1ccc2cc3c(ccc4ccccc43)cc2c1` the mutagenic call (Test System: AMES SALMONELLA TYPHIMURIUM, Strain/Indicator: TA100, Metabolic Activation: RAT, INTACT HEPATOCYTES, AROCLOR 1254, Method: PREINCUBATION) was “active; positive”, the mutagenic call (Test System: AMES SALMONELLA TYPHIMURIUM, Strain/Indicator: TA100, Metabolic Activation: RAT, NADPH-FORTIFIED HOMOGENIZED HEPATOCYTES, AROCLOR 1254, Method: PREINCUBATION) was “active; positive” and the mutagenic call (Test System: AMES SALMONELLA TYPHIMURIUM, Strain/Indicator: TA100, Metabolic Activation: RAT, SONICATED HEPATOCYTES, AROCLOR 1254, Method: PREINCUBATION) was “active; positive”.

`Cc1cccc(N=Nc2c(O)ccc3ccccc23)c1C` was tested, and the mutagenic call [3] was “inactive; negative”, the mutagenic call (Test System: AMES SALMONELLA TYPHIMURIUM, Strain/Indicator: TA98, Metabolic Activation: RAT, LIVER, S-9, Method: STANDARD PLATE) was “inactive; negative” and the mutagenic call [8] was “inactive; negative”. The mutagenic call (Test System: AMES SALMONELLA TYPHIMURIUM, Strain/Indicator: TA100, Metabolic Activation: RAT, LIVER, S-9, Method: STANDARD PLATE) was “inactive; negative”.

With `CCN` the mutagenic call [1] was “inactive; negative”, the mutagenic call [2] was “inactive; negative” and the mutagenic call [4] was “inactive; negative”. For the same compound, the mutagenic call [6] was “inactive; negative”, the mutagenic call [7] was “inactive; negative” and the mutagenic call [9] was “inactive; negative”. For the same compound, the mutagenic call [11] was “inactive; negative”, the mutagenic call [12] was “inactive; negative” and the mutagenic call [14] was “inactive; negative”. For the same compound, the mutagenic call [16] was “inactive; negative”, the mutagenic call [17] was “inactive; negative” and the mutagenic call [19] was “inactive; negative”.

With `Cc1cc(C(O)c2ncc([N+](=O)[O-])n2C)c(O)c(C(C)(C)C)c1` (stereo not drawn) the mutagenic call [3] was “inactive; negative”, the mutagenic call [5] was “inactive; negative” and the mutagenic call [8] was “inactive; negative”. The mutagenic call [10] was “inactive; negative”, the mutagenic call [13] was “inactive; negative” and the mutagenic call [15] was “inactive; negative”. For the same compound, the mutagenic call [18] was “inactive; negative”, the mutagenic call [20] was “inactive; negative” and the mutagenic call [21] was “inactive; negative”. For the same compound, the mutagenic call [22] was “inactive; negative”.
